Here are results for 1 molecule from patent publication EP1985629A1, “Pro-apoptotic molecules and therapeutic uses thereof” (UNIVERSITA DEGLI STUDI DI GENOVA, priority 2007, dated 2008).

Where a SMILES comes first, the peptide text is derived from it. [ ]: non-standard residue; d: D form. Aib = CC(C)(N)C(=O)O

Data set [1] can be described thus: Peptides stability in medium with 10% FBS or in 100% FBS (HPLC-MS). The class given is in vitro ADME. As to conditions: 37°C. As to the method:
Compounds were added to the medium solution of serum 10% or 100% FBS at the final concentration of 32 µM. Several extraction mixtures were attempted: MeOH; MeOH with 0,1% trifluoroacetic acid (TFA); (H2O: MeOH) 1:1, 1:4, 4;1. A perchloric acid (PCA) protein precipitation protocol was also tried. […] In both cases ice-cold methanol was added to the peptide solution. The mixture was centrifuged and the resulting supernatant was then added with ice-cold methanol (alone or containing 0,1% TFA) at a 1:1 final ratio and this procedure was repeated twice. Before extraction peptides were incubated in 10% FBS or 100% FBS at 37°C and, at different incubation times (0', 6, 24 and 48 hours), a sample of 50 µl was collected to be analyzed by HPLC-MS.

A further data set concerns Namalwa cells. Briefly: Morphologic analysis of apoptosis (PI, confocal microscopy). The class given is cell-based, human. As to conditions: PI labeled Namalwa cells; and 48 h (072RB), 48 h (Int). As to the method: After extensive washes, samples were incubated with PI (50µg/ml in PBS) and 100 units/ml Rnase type A and 10 mM EDTA (to inactivate endogenous nucleases) for 15 min at room temperature. After three washes, cells were put on a micro-slide, covered with a coverslip and analysed with an IX81 microscope equipped with He-Neon […] laser, suitable for PI fluorescence excitation (FV500, Olympus BioSystem). 10-15 fields were analysed with 40x oil/1.35NA or 60x oil/1.40NA objectives and images acquired with the Flowview 4.2b computer program.

Data set [2] concerns peripheral blood lymphocytes (PBL). Kind of data set: Viability of normal peripheral blood lymphocytes. The class given is cell-based, human. As to conditions: for ratio of viable cells, treated versus untreated: two pulses at a 48 h interval, four days, mean ± SE. As to the method: The leukemic myelomonocytic cell line U937, the T cell leukaemia cell line Jurkat, the Burkitt lymphoma cell line Namalwa were grown in RPMI 1640 medium supplemented with 10% FBS, 1% sodium pyruvate, 1% non essential aminoacids, 1% penicillin/streptomycin. 2.5·10^4 cells were seeded on 48 wells plates (Corning Costar). The treatment was performed on triplicate wells. Drug concentration ranged from 1 µM up to 30 µM, four treatments every 24 h or two treatments every 48 h were performed. Human peripheral blood lymphocytes obtained from healthy volunteers by venipuncture, were isolated by lymphocyte separation medium (Ficoll) density gradient centrifugation. Mononuclear cells from the interphase were washed twice with PBS and resuspended in RPMI 1640 medium containing 10% FCS, glutamine and antibiotics. Phytohemagglutinin (PHA) was added at 1.5 µg/ml final concentration.
PI uptake tests were performed to assess cell viability. Cells suspended in culture medium were incubated for 5 min with 3 µg/ml PI and analysed by flow cytometry. […] At least 10,000 events were acquired on a logarithmic scale from each sample.
Bone marrow aspirates from patients with different leukaemia types were plated in tissue culture medium supplemented with 20% FCS, treated with 072RB twice every 48 h, and followed for 4 days. They were evaluated by flow cytometry DNA/SSC analysis, In Table 3 we show the percentage of [early + late apoptotic cells], according to leukaemia type and Int or 072RB dosage. To further study sensitivity to 072RB of normal cells, peripheral blood lymphocytes (PBL) isolated from four independent healthy donors were subjected to a four-days treatment with 10 µM 072RB. Treatment was performed, as usual, with two pulses at a 48 h interval. Lymphocytes were either un-stimulated or activated by PHA. […] Comparing treated and untreated normal peripheral lymphocytes, the ratio of viable cells between the two groups was 0.87 ± 0.05 (mean ± SE) for quiescent lymphocytes and 0.82 ± 0.057 for proliferating lymphocytes. This effect of 072RB on normal lymphocytes seems especially small if we consider the effects observed in leukaemia cell lines (see supplementary information), and also the effects observed in AML cells from ex vivo experiments: 0.55 ± 0.145 (mean ± SE). Table 3: Effect of 072RB on haematological malignancies (AML: acute myeloid leukaemia; ALL: acute lymphoid leukaemia; NBM: normal bone marrow): percentage of early/late apoptotic cells. Mean values from duplicate experiments are reported. The difference between the two individual values never exceeded 15% of the mean value. Ex vivo isolated cells were treated with either Int or 072RB at day 0, 2 (5, 10 µM), at day 0, 1, 2, 3 (1, 3 µM) and analysed after PI staining at day 4.

The term half-life denotes the time in which the quantity being followed falls by half.

Consider `CC[C@H](C)[C@H](NC(=O)[C@H](CCCNC(=N)N)NC(=O)[C@H](CCCNC(=N)N)NC(=O)[C@H](CC(C)C)NC(=O)[C@H](CCC(=O)O)NC(=O)[C@H](CCC(N)=O)NC(=O)C(C)(C)NC(=O)[C@@H](NC(=O)[C@H](Cc1ccc(O)cc1)NC(=O)[C@@H](NC(=O)[C@H](CCC(=O)O)NC(=O)[C@@H]1CCCN1C(=O)[C@H](CCCNC(=N)N)NC(=O)[C@H](CCSC)NC(=O)[C@@H](N)CC(=O)O)[C@@H](C)CC)[C@@H](C)CC)C(=O)NCC(=O)N[C@@H](CC(=O)O)C(=O)N[C@@H](C)C(=O)N[C@@H](Cc1ccccc1)C(=O)N[C@@H](CC(N)=O)C(=O)NC(C)(C)C(=O)N[C@@H](Cc1ccc(O)cc1)C(=O)N[C@@H](CCCCN)C(=O)N[C@@H](CCCCN)C(=O)N[C@@H](Cc1c[nH]c2ccccc12)C(=O)N[C@@H](CCCCN)C(=O)N[C@@H](CCSC)C(=O)N[C@@H](CCCNC(=N)N)C(=O)N[C@@H](CCCNC(=N)N)C(=O)N[C@@H](CC(N)=O)C(=O)N1CCC[C@H]1C(=O)N[C@@H](Cc1ccccc1)C(=O)N[C@@H](Cc1c[nH]c2ccccc12)C(=O)N[C@H](C(=O)N[C@@H](CCCCN)C(=O)N[C@H](C(=O)N[C@@H](CCC(N)=O)C(=O)N[C@@H](CCCNC(=N)N)C(N)=O)[C@@H](C)CC)[C@@H](C)CC` [Peptide 072RB] (H-DMRPEIYI[Aib]QELRRIGDAFN[Aib]YKKWKMRRNPFWIKIQR-NH2; N-terminus and C-terminus assumed), for which the half-life at 32 µM in data set [1] (RPMI 1640 medium with 10% fetal bovine serum (FBS), medium (RPMI 1640) with 10% FBS, calculated by linear regression) is 2190 min; in data set [1] (bovine, 100% fetal bovine serum (FBS), 100% FBS), 1070 min. The “chromatin condensation and apoptotic body formation” value in the data set with Namalwa cells is “exhibited chromatin condensation and apoptotic body formation”. The “effect on cell viability and cell proliferation” value in data set [2] (normal peripheral lymphocytes, data not reported) was “cytostatic rather than cytotoxic”. In addition, the “ratio of viable cells, treated versus untreated” value in data set [2] (proliferating (PHA activated) lymphocytes, 10 µM) is given as 0.82 ± 0.057; in data set [2] (quiescent lymphocytes, 10 µM), 0.87 ± 0.05. Besides, the toxicity result in data set [2] (quiescent lymphocytes, 10 µM) is “quite negligible”.
